Some test systems named below: MOLT-4 leukemia; SK-MEL-28 melanoma; U251 CNS; KM12 colon; RXF 393 renal; CCRF-CEM leukemia; COLO 205 colon; DU-145 prostate; 786-0 renal; SF-268 CNS; IGROV1 ovarian; TK-10 renal; UACC-257 melanoma; NCI-H226 lung; UO-31 renal; MDA-N; PC-3 prostate; BT-549 breast; MALME-3M melanoma; CAKI-1 renal.
Test in all cases: NCI tumour cell line growth inhibition, 48 h

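Method: 48-hour compound exposure of cells in 96-well plates, five concentrations, linear interpolation of endpoints. TGI marks complete inhibition of growth.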

As to `CC(=O)Nc1ccc(C(=O)NN2C(=O)CSC2c2ccc([N+](=O)[O-])cc2)cc1` (stereo not given), the TGI in the assay on MOLT-4 leukemia, in the assay with SK-MEL-28 melanoma, in the assay on U251 CNS, in the assay on KM12 colon, in the assay with RXF 393 renal and with CCRF-CEM leukemia was more than 100 µM in each case. Also, the TGI with COLO 205 colon, in the assay on DU-145 prostate, in the assay on 786-0 renal, with SF-268 CNS, with IGROV1 ovarian and in the assay on TK-10 renal was more than 100 µM throughout. Further, the TGI with UACC-257 melanoma, with NCI-H226 lung, with UO-31 renal and with MDA-N was more than 100 µM each time.

For the compound `CC(C)(C)[Si](C)(C)OCC1OC(n2ccc(N)nc2=O)C(O[Si](C)(C)C(C)(C)C)C1O[Si](C)(C)C(C)(C)C` (stereo not given), the TGI is 3.65 µM in the assay on PC-3 prostate; 3.73 µM with BT-549 breast; 4.11 µM with MALME-3M melanoma; 9.84 µM with COLO 205 colon; 23.7 µM with DU-145 prostate; 3.01 µM in the assay on 786-0 renal. In addition, the TGI with SF-268 CNS was 7.27 µM; with IGROV1 ovarian, 3.94 µM; in the assay with UACC-257 melanoma, 10.4 µM; with NCI-H226 lung it was 2.86 µM; in the assay with UO-31 renal it was 3.07 µM; in the assay with MDA-N, 13 µM.

Regarding `CCc1cc2c(oc3cc4ccccc4cc32)c(=O)[nH]1`, the TGI in the assay with PC-3 prostate, with BT-549 breast, in the assay on MALME-3M melanoma, with KM12 colon, in the assay on RXF 393 renal and in the assay with DU-145 prostate was more than 10 µM each time. The TGI in the assay on 786-0 renal, with SF-268 CNS, with IGROV1 ovarian, in the assay on TK-10 renal, in the assay with UACC-257 melanoma and in the assay on NCI-H226 lung was more than 10 µM each time. Moreover, the TGI in the assay on UO-31 renal and in the assay with MDA-N was more than 10 µM throughout.

As to `NS(=O)(=O)c1ccc(N=Nc2nc3[nH]c(=O)[nH]c(=O)c3[nH]2)cc1`, the TGI in the assay with PC-3 prostate, in the assay on BT-549 breast, in the assay with CAKI-1 renal, in the assay with MALME-3M melanoma, in the assay on SK-MEL-28 melanoma and in the assay with U251 CNS was more than 100 µM each time. Moreover, the TGI in the assay with KM12 colon, with RXF 393 renal, with COLO 205 colon, in the assay on DU-145 prostate, with 786-0 renal and in the assay on SF-268 CNS was more than 100 µM in each case. Moreover, the TGI in the assay on IGROV1 ovarian, in the assay with TK-10 renal, in the assay on UACC-257 melanoma, in the assay on NCI-H226 lung, in the assay on UO-31 renal and in the assay with MDA-N was more than 100 µM each time.

For `OCCCCCCCCCCCOc1ccc(C2OCC3(CO2)COC(c2ccc(OCCCCCCCCCCCO)cc2)OC3)cc1` (stereo not given), the TGI with PC-3 prostate, in the assay on BT-549 breast, in the assay with MOLT-4 leukemia, in the assay on CAKI-1 renal, in the assay on MALME-3M melanoma and in the assay on SK-MEL-28 melanoma was more than 50 µM throughout. Besides, the TGI in the assay on U251 CNS, in the assay with KM12 colon, with COLO 205 colon, with DU-145 prostate, in the assay on 786-0 renal and in the assay on SF-268 CNS was more than 50 µM each time. In addition, the TGI with IGROV1 ovarian, in the assay on TK-10 renal, in the assay on UACC-257 melanoma, in the assay on NCI-H226 lung, in the assay with UO-31 renal and in the assay with MDA-N was more than 50 µM in each case.

Regarding `CCOC(=O)C1=C(C)N(Cc2ccc(Cl)cc2Cl)C2(O)C=CC(=O)C3C(=O)N(c4ccccc4)C(=O)C132` (stereo not given), the TGI was found to be 3.55 µM with PC-3 prostate; 3.27 µM with BT-549 breast; 4.93 µM in the assay with MOLT-4 leukemia; 9.36 µM with CAKI-1 renal; 8.67 µM in the assay on MALME-3M melanoma; 3.53 µM in the assay on SK-MEL-28 melanoma. In addition, the TGI with U251 CNS was 3.8 µM; in the assay with KM12 colon it was 3.65 µM; in the assay on RXF 393 renal, 2.87 µM; in the assay on CCRF-CEM leukemia, 1.4 µM; in the assay on COLO 205 colon, 3.36 µM; with DU-145 prostate, 2.97 µM. Further, the TGI in the assay on 786-0 renal is more than 100 µM; with SF-268 CNS, 11.3 µM; in the assay on IGROV1 ovarian, 3.51 µM; with TK-10 renal it was 8.09 µM; in the assay with UACC-257 melanoma it was 5.81 µM; with NCI-H226 lung it was 3.09 µM. This compound came in with a TGI in the assay with UO-31 renal of 5 µM.

For `O=C(NCC(=O)N1CCCC1C(=O)OC(=O)C1CCCN1C(=O)CNC(=O)OCc1ccccc1)OCc1ccccc1` (stereo not given), the TGI is more than 100 µM in the assay with PC-3 prostate; 67.1 µM in the assay with MOLT-4 leukemia; more than 100 µM in the assay with CAKI-1 renal; 64.8 µM in the assay on MALME-3M melanoma; 70.4 µM in the assay with SK-MEL-28 melanoma; more than 100 µM with U251 CNS. Further, the TGI in the assay on KM12 colon was more than 100 µM; in the assay on RXF 393 renal, 64.5 µM; in the assay on CCRF-CEM leukemia it was more than 100 µM; with COLO 205 colon, 33.9 µM; in the assay with DU-145 prostate, more than 100 µM; in the assay on 786-0 renal, more than 100 µM. For the same compound, the TGI in the assay on SF-268 CNS was 89 µM; in the assay with IGROV1 ovarian, more than 100 µM; with TK-10 renal it was 49.7 µM; in the assay with UACC-257 melanoma, 52.1 µM; in the assay on NCI-H226 lung, 66.2 µM; in the assay with UO-31 renal, more than 100 µM. In the assay on MDA-N, this compound yielded a TGI of more than 100 µM.

Turning to `COc1ccc(N2C(=O)C(=O)N(c3ccccc3[N+](=O)[O-])C2=S)cc1`, the TGI in the assay on PC-3 prostate, in the assay with MOLT-4 leukemia, with CAKI-1 renal, in the assay on MALME-3M melanoma, in the assay on SK-MEL-28 melanoma and in the assay on U251 CNS was more than 100 µM in each case. Moreover, the TGI in the assay with KM12 colon was 71.9 µM; in the assay with RXF 393 renal it was 52.8 µM; in the assay with CCRF-CEM leukemia, more than 100 µM; in the assay on COLO 205 colon, 44.4 µM; in the assay on DU-145 prostate it was more than 100 µM; in the assay with 786-0 renal it was more than 100 µM. For the same compound, the TGI with SF-268 CNS is more than 100 µM; in the assay with IGROV1 ovarian, more than 100 µM; with TK-10 renal, 65.7 µM; in the assay with UACC-257 melanoma it was 47.3 µM; in the assay on NCI-H226 lung, more than 100 µM; in the assay with UO-31 renal it was more than 100 µM. In the assay with MDA-N, the TGI is 74.2 µM.

Source of the values: PubChem BioAssay (NCI).
